Data from patent publication US6806269B1, “2-Amino-benzoxazinones for the treatment of herpes simplex virus” (G. D. Searle & Cop, priority 1999, dated 2004).

Tests used:
[1] = target: T1, Human leukocyte elastase (HLE) (Homo sapiens, UniProt P08246); assay: Human leukocyte elastase assay; type: biochemical; settings: 50 μM compound; 30 minutes pre-incubation
T1 construct: purchased CALBIOCHEM
T1 sequence (P08246 30-267): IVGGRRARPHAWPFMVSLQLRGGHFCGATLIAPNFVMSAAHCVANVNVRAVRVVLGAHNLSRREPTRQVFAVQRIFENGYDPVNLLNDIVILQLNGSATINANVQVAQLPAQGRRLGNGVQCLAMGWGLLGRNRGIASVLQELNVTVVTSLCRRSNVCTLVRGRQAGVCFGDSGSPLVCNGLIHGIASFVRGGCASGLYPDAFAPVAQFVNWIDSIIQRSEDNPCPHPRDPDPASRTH
Method: Human Leukocyte Elastase Assay
Human leukocyte elastase (HLE) (CALBIOCHEM) was dissolved in saline at 1 mg/ml and further diluted 1/10 in assay buffer (0.2 M Tris, pH 8.0) before use.
0.75 μl of test compound in DMF (or DMF alone), 50 μl of assay buffer and 50 μl of enzyme were added to 96 well plate, mixed and pre-incubated for 30 minutes at ambient temperature. Reaction was initiated by addition of 50 μl of 2.5 mM methoxysuccinyl-Ala-Ala-Pro-Val-p-nitroanilide (Sigma; 25 mM in DMSO diluted 1/10 in assay buffer before use). The increase in absorbance at 405 nm was monitored for 3 min. with BIO-RAD model 3550 microplate reader.

HSV-1 = assay: Antiviral assay: plaque reduction assay, HSV-1 in vero cells; type: cell-based, HSV-1 (vero cells, African green monkey kidney cell); settings: Human alphaherpesvirus 1, Vero, 72 h, read-out: ANTIVIRUS EC50
From the text: These complimentary assays tested the ability of a compound to inhibit the production of new virus and the toxicity of the compound to the host cells. It was important that both assays be performed simultaneously in order to compare the results directly since toxicity may indirectly reduce viral replication.
The antiviral assay was estimated by plaque reduction assay performed by following methods. 1×10^5 of vero cells (African green monkey kidney cell) in 48-well plates were over-night cultured and the medium of this culture was replaced with 200 μl of 2% FBS DMEM containing 2× the desired final cordon of test compounds or no compound as control. The cultures were added 50 μl of 2% FBS DMEM containing with about 50 plaque forming units of HSV-1and next 250 μl of 2% FBS DMEM containing 1% methylcellulose. These infected cultures were incubated at 37° C., 5% CO2 for 3 days until plaques was visible. The cells were fixed and stained simultaneously with 0.025% crystalviolet in 5% formalin solution and plaque were counted. The concentration of test compound which conferred 50% inhibition of plaque formation compared to no compound control was interpolated from the observed data and defined as IC50.

[2] = target: T2, Bovine pancreas α-chymotripsin (Bos taurus, UniProt P00766); assay: Chymotripsin assay; type: biochemical; settings: 50 μM compound; 30 minutes pre-incubation; read-out: INHIBITION AT 50 μM CHYMOTRYPSIN (%)
T2 construct: purchased Sigma type II; host or cells: bovine pancreas
Method: The chymotripsin assay was modified from the method of Delmar, et al. (Anal. Biochem. 99, 316-320 (1979)). Bovine pancreas α-chymotripsin(type II, Sigma) was dissolved in 0.001 N HCl at 1 mg/ml and further diluted 1/1000 in assay buffer (0.1 M Tris, pH 7.8 containing 0.1 M CaCl2) before use. 0.75 μl of test compound in DMF (or DMF alone), 50 μl of assay buffer and 50 μl of enzyme were added to 96 wells plates, mixed and pre-incubated for 30 minutes at ambient temperature. Reaction was initiated by addition of 50 μl of 0.2 mM N-succinyl-Ala-Ala-Pro-Phe-p-nitroanilide (Sigma; 2 mM in DMSO diluted 1/10 in assay buffer before use). The increase in absorbance at 405 nm was monitored for 3 minutes with BIO-RAD model 3550 microplate-reader.

[3] = target: T3, HSV-1 protease (assemblin) (Human herpesvirus 1, UniProt P10210); assay: Enzymatic assay for HSV-1 protease (assemblin) inhibition (FP assay / HPLC assay); type: biochemical; settings: recombinant HSV-1 protease; 30 minute pre-incubation at room temperature; FP or HPLC format not stated; read-out: ENZYME IC50
T3 construct: encoding residues 1-288 of HSV-1 UL26 open reading frame and 32 heterologous amino acid; 6xHis (N); made in house
T3 sequence (P10210 1-288): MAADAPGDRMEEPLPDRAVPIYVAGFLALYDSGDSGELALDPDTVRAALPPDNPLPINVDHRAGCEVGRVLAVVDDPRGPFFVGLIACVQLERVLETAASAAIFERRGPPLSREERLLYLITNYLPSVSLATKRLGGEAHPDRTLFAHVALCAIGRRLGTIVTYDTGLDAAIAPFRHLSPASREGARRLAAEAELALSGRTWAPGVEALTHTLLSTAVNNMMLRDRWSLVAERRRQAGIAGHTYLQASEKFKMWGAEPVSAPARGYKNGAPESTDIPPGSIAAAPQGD
Method: Enzymatic Assay for HSV-1 Protease (Assemblin) Inhibition
Assemblin protease activity was determined using fluorescence polarization (FP). The fluorescent substrate was biotin-gamma-aminobutyrate -[…]-DTAF, based on the HSV-1release cleavage site. […] A change in molecular size of fluorescent substrate molecule, which was increased using avidin as a reaction stop reagent, allowed cleavage to be measured by FP. Potential protease inhibitors were dissolved in DMF and then diluted 5-fold in assay buffer. […] The enzyme was diluted to 21.3 ug/mL in assay buffer (1M NaCitrate, 50 mM NaPhosphate, pH 7.4, 100mM NaCl, 20% glycerol, 2 mM TECP) and 48.5 uL were added to each well. Following a 30 minute incubation at room temperature, 10 uL of 62.5 ug/mL substrate were added. After about 90 minute incubation at room temperature, 50 uL of 2 mg/mL avidin in phosphate buffer (50 mM Naphosphate, 100 mM NaCl, pH 7.4) were added to each well. The plates were read by a fluorescence polarization plate reader. Inhibitor potency was determined by comparison with incubations lacking inhibitor.
Assays were performed with the peptide substrate H-His-Thr-Tyr-Leu-Gln-Ala-Ser-Glu-Lys-Phe-Lys-Met-Trp-Gly-NH2 (Bachem). This substrate is a HSV-1-amide UL26 Open Reading Frame (242-255) and is derived from the release site of HSV-1 protease. HSV-1protease cleaves between alanine and serine. The product […] was quantified on HPLC using fluorescence detection of tryptophan residue. Enzyme was diluted to 4.3 ug/mL in assay buffer (1 M NaCitrate, 50 mM NaPhosphate, pH 7.3, 100 mM NaCl, 20% glycerol, 2 mM TCEP) and 48.5 uL were added to the tubes. Potential protease inhibitors were dissolved in DMF and then diluted 10-fold in assay buffer. 6.5 uL of inhibitor solution were added to each tube. Following a 30-minute incubation at room temperature, 10 uL of substrate in phosphate buffer (50 mM Naphosphate, 100 mM NaCl, pH 7.4) were added to all tubes. The final concentration of the substrate in the reaction mixtures was 10 uM. After a 15-minute incubation at room temperature, assays were quenched using 50 uL of 50% TCA. Inhibitor potency was determined by comparison with incubations lacking inhibitor, which under these conditions gave about 20% cleavage of substrate.
Recombinant HSV-1 Protease
HSV-1 protease was purified from baculovirus expressing a DNA construction encoding residues 1-288 of HSV-1 UL26 open reading frame and 32 heterologous amino acid. The construction also encoded six additional histidine residues at the amino terminus of the protease. These additional histidine residues provided an affinity ligand by which the protein was purified using Ni-NTA agarose gel (Qiagen). The purified protease was stored in stock solution (20 mM HEPES buffer, pH 8.5, containing 20% (v/v) glycerol). This stock was diluted with assay buffer to adequate concentration of enzymatic assay.
A specific substrate was synthesized based on the cleavage specificity of HSV-1 protease at the “release site” of the assembly protein (DiIanni, C. L., et al., J. Biol. Chem. 268, 2048, (1993)). The assembly protein release site has the sequence, HTYLQA*SEKFKMWG. The substrate used was biotin-gamma -aminobutyrate-HTYLQA*SERFRIK-DTAF which was prepared by standard peptide synthetic methods such as that described in Bodansky and Bodansky, “The Practice of Peptide Synthesis” (1984), and was stored as a stock solution at 2.5 mg/mL in DMF. This was diluted to 62.5 ug/mL with phosphate buffer (50 mM Naphosphate, […], pH 7.4) just before use.
The substrate was HSV-1-amide UL 26 Open Reading Frame (242-255), obtained from Bachem (Product No. M-2160).
An assay buffer (1 M NaCitrate, 50 mM NaPhosphate, pH 7.4, 100 mM NaCl, 20% glycerol, 2 mM TCEP) was used to dilute stock solutions of enzyme and inhibitors.

| Structure (SMILES) | inhibition at 50 µM [1] | EC50 (HSV-1) | inhibition at 50 µM [2] | IC50 [3] |
| --- | --- | --- | --- | --- |
| COc1ccc(CN(C)c2nc3ccc(NC(=O)OC(C)(C)C)c(C)c3c(=O)o2)cc1 [Compound 3, 6-[[(1,1-Dimethylethoxy)carbonyl]amino]-5-methyl-2-[methyl[(4-methoxyphenyl)methyl]amino]4H-3,1-benzoxazin-4-one] | 0% | 0.16 µM | 0% | 0.6 µM |
| Cc1c(NC(=O)OC(C)(C)C)ccc2nc(N(C)Cc3ccccc3)oc(=O)c12 [Compound 1, 6-[[(1,1-Dimethylethoxy)carbonyl]amino]-5-methyl-2-[methyl(phenylmethyl)amino]-4H-3,1-benzoxazin-4-one] | 32% | 1.1 µM | 13% | 0.6 µM |
| Cc1cccc2nc(N(C)CCN3CCOCC3)oc(=O)c12 [CC6, reference compound] | 99% | > 50 µM | 97% | 11.8 µM |
| Cc1c(NC(=O)OC(C)(C)C)ccc2nc(N(CCC#N)C3CC3)oc(=O)c12 [Compound 13, 6-[[(1,1-Dimethylethoxy)carbonyl]amino]-5-methyl-2-[(2-cyanoethyl)-(cyclopropyl)amino]-4H-3,1-benzoxazin-4-one] | 0% | 7.6 µM | 2.2% | 3.9 µM |
| Cc1c(NC(=O)OC(C)(C)C)ccc2nc(N3CCN(C(=O)c4ccco4)CC3)oc(=O)c12 [Compound 14] | 46.3% | 1.6 µM | 0% | 2 µM |
| Cc1c(Br)ccc2nc(N(C)Cc3ccccc3)oc(=O)c12 [CC4, reference compound] | 98% | 15 µM | 102% | – |
| Cc1c(NC(=O)OC(C)(C)C)ccc2nc(N3CC=CCC3)oc(=O)c12 [Compound 8, 6-[[(1,1-Dimethylethoxy)carbonyl]amino]-5-methyl-2-[1-(1,2,3,6-tetrahydro-pyridyl)]-4H-3,1-benzoxazin-4-one] | 0% | 3.3 µM | 0% | 5 µM |
| Cc1cccc2nc(N(C)Cc3ccccn3)oc(=O)c12 [CC3, reference compound] | 100% | 48.9 µM | 100% | 3.2 µM |
| Cc1c(NC(=O)c2c(F)cc(F)cc2F)ccc2nc(N(C(C)C)C(C)C)oc(=O)c12 [Compound 12, 6-[(2,4,6-Trifluorobenzoyl)amino]-5-methyl-2(diisopropylamino)-4H-3,1-benzoxazine-4-one] | 13.4% | 6.8 µM | 22.4% | 6.3 µM |
| Cc1c(NC(=O)OC(C)(C)C)ccc2nc(N(C)Cc3ccccn3)oc(=O)c12 [Compound 18, 6-[[(1-Dimethylethoxy)carbonyl]amino]-5-methyl-2-[methyl(2-pyridylmethyl)-amino]-4H-3,1-benzoxazin-4-one] | 28.7% | 15.1 µM | 0% | 1.5 µM |
| Cc1c(NC(=O)OC(C)(C)C)ccc2nc(N3CCN(S(=O)(=O)c4ccccc4)CC3)oc(=O)c12 [Compound 15, 6-[[(1,1-Dimethylethoxy)carbonyl]amino]-5-methyl-2-[(4-benzenesulfonyl)-piperazinyl]-4H-3,1-benzoxazin-4-one] | 0% | 2.8 µM | 0% | 1.7 µM |
| Cc1c(NC(=O)c2ccccc2)ccc2nc(N(C)Cc3ccccc3)oc(=O)c12 [Compound 2, 6-(benzoylamino)-5-methyl-2-[methyl(phenylmethyl)amino]-4H-3,1-benzoxazin-4-one] | 26% | 4.6 µM | 7% | 0.7 µM |
| CC(=O)N1CCN(c2nc3ccc(NC(=O)OC(C)(C)C)c(C)c3c(=O)o2)CC1 [Compound 16, 6-[[(1,1-Dimethylethoxy)carbonyl]amino]-5-methyl-2-[4-(1-acetylpiperadinyl)]-4H-3,1-benzoxazin-4-one] | 1.4% | 3.6 µM | 0% | 2.3 µM |
| Cc1c(NC(=O)OC(C)(C)C)ccc2nc(N3CCN(C(=O)c4cccs4)CC3)oc(=O)c12 [Compound 17, 6-[[(1,1-Dimethylethoxy)carbonyl]amino]-5-methyl-2-[(4-thenoyl)piperzinyl]-4H-3,1-benzoxazin-4-one] | 0% | 4.1 µM | 0% | 4.2 µM |
| CCN(CC)c1nc2cccc(C)c2c(=O)o1 [CC1, reference compound] | – | – | – | 20 µM |
